Measurements: the supplement of paper PMC10331698
± gives the standard deviation of the averaged measurements.

Key:
Assay in all cases: level (log10 ratio to DMSO vehicle control); higher = higher biomarker level / cell amount than vehicle control
Conditions in all cases: in DMSO
[1] = compound: C=C(C)C(=O)OCCC(F)(F)C(F)(F)C(F)(F)C(F)(F)C(F)(C(F)(F)F)C(F)(F)F [(Perfluoro-5-methylhexyl)ethyl 2-methylprop-2-enoate]
Protocol: (§1)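 BioMAP Diversity Plus panel of 12 human primary cell co-culture systems (3C, 4H, LPS, SAg, BT, BF4T, BE3C, CASM3C, HDF3CGF, KF3CT, MyoF, Mphg). Compounds were added 1 h before stimulation and left for 24 h (MyoF 48 h; BT 72 h for soluble read-outs or 6 d for IgG). Biomarkers were read by ELISA, cytotoxicity by SRB, PBMC viability and proliferation by Alamar Blue. Each well value was divided by the mean of 8 DMSO control wells on the same plate and log10 transformed; duplicate blinded samples were tested at 4 concentrations.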

Perfluoro-1-iodohexane = compound: FC(F)(F)C(F)(F)C(F)(F)C(F)(F)C(F)(F)C(F)(F)I [Perfluoro-1-iodohexane]
Protocol: as §1

[2] = compound: FC(F)(F)C(F)(F)C(F)(F)C(F)(F)C(F)(F)CCI [1-Iodo-1H,1H,2H,2H-perfluoroheptane]
Protocol: as §1

[3] = compound: NCC(F)(F)C(F)(F)C(F)(F)C(F)(F)C(F)(F)C(F)(F)C(F)(F)F [1H,1H-Perfluorooctylamine]
Protocol: as §1

Perfluoropentanoic acid = compound: O=C(O)C(F)(F)C(F)(F)C(F)(F)C(F)(F)F [Perfluoropentanoic acid]
Protocol: as §1

[4] = compound: O=C(O)C(F)(F)C(F)(F)C(F)F [4H-Perfluorobutanoic acid]
Protocol: as §1

[5] = compound: OCC(F)(F)OC(F)(F)C(F)(F)OC(F)(F)CO [1H,1H,8H,8H-Perfluoro-3,6-dioxaoctane-1,8-diol]
Protocol: as §1

Test System	level (log10) ([1]; 6700 nM)	level (log10) ([1]; 20000 nM)	level (log10) (Perfluoro-1-iodohexane; 6700 nM)	level (log10) (Perfluoro-1-iodohexane; 20000 nM)	level (log10) (Perfluoro-1-iodohexane; 60000 nM)	level (log10) ([2]; 6700 nM)	level (log10) ([2]; 20000 nM)	level (log10) ([2]; 60000 nM)	level (log10) ([3]; 6700 nM)	level (log10) ([3]; 20000 nM)	level (log10) ([3]; 60000 nM)	level (log10) (Perfluoropentanoic acid; 6700 nM)	level (log10) (Perfluoropentanoic acid; 20000 nM)	level (log10) (Perfluoropentanoic acid; 60000 nM)	level (log10) ([4]; 6700 nM)	level (log10) ([4]; 20000 nM)	level (log10) ([4]; 60000 nM)	level (log10) ([5]; 6700 nM)	level (log10) ([5]; 20000 nM)	level (log10) ([5]; 60000 nM)
SAg:PBMC Cytotoxicity	-0.0255 ± 0.018	0.0155 ± 0.013	-0.025 ± 0.023	-0.014 ± 0.0014	-0.024 ± 0.028	-0.016 ± 0.024	0.0085 ± 0.018	-0.033 ± 0.045	0.032 ± 0.025	0.018 ± 0.013	-0.129 ± 0.27	-0.0105 ± 0.023	-0.0135 ± 0.012	0.0145 ± 0.022	-0.0205 ± 0.015	0.002 ± 0.0042	0.017 ± 0.033	0.0055 ± 0.005	0.028 ± 0.089	-0.033 ± 0.0042
LPS:CD40	0.07 ± 0.038	-0.0015 ± 0.016	0.058 ± 0.0014	0.0375 ± 0.005	-0.0135 ± 0.061	0.0475 ± 0.061	0.056 ± 0.061	0.014 ± 0.078	-0.0195 ± 0.019	-0.0095 ± 0.023	-0.022 ± 0.04	0.0115 ± 0.011	0.0075 ± 0.022	-0.0265 ± 0.013	-0.0365 ± 0.022	-0.0355 ± 0.021	0.015 ± 0.031	0.006 ± 0.027	0.017 ± 0.0028	0.0005 ± 0.03
BF4T:IL-1alpha	-0.0155 ± 0.021	-0.014 ± 0.03	-0.0075 ± 0.005	-0.0065 ± 0.012	-0.004 ± 0.0057	0.0015 ± 0.022	-0.001 ± 0.011	0.0065 ± 0.0092	0.001 ± 0.0057	-0.0175 ± 0.0035	0.0065 ± 0.013	-0.016 ± 0.0085	-0.005 ± 0.0071	0.0155 ± 0.046	-0.02 ± 0.0014	-0.019 ± 0.014	0.0085 ± 0.012	-0.004 ± 0.0042	-0.01 ± 0.0042	0.012 ± 0.0028
4H:CD87/uPAR	0.0115 ± 0.037	0 ± 0.0071	-0.0035 ± 0.053	0.017 ± 0.062	0.036 ± 0.12	0.0265 ± 0.018	0.0175 ± 0.005	0.025 ± 0.03	-0.0235 ± 0.023	-0.0215 ± 0.033	0.003 ± 0.014	-0.0435 ± 0.035	-0.0355 ± 0.005	-0.055 ± 0.0028	-0.0265 ± 0.025	-0.0065 ± 0.0035	-0.004 ± 0.044	0.015 ± 0.044	0.0265 ± 0.0035	0.0065 ± 0.044
BE3C:IL-1alpha	-0.017 ± 0.0057	-0.009 ± 0.0014	-0.0155 ± 0.013	-0.009 ± 0.0014	-0.0195 ± 0.013	-0.0085 ± 0.016	-0.005 ± 0.013	-0.012 ± 0.0085	-0.002 ± 0.0028	-0.0285 ± 0.016	-0.01 ± 0.0014	0.005 ± 0.02	0 ± 0.0028	0.0155 ± 0.029	-0.0325 ± 0.0064	-0.018 ± 0.025	-0.0045 ± 0.079	0.0105 ± 0.032	0.0055 ± 0.016	0.003 ± 0.0014
BE3C:CXCL11/I-TAC	0.005 ± 0.0099	0.0105 ± 0.0092	-0.0005 ± 0.0021	0.002 ± 0.0057	0.0175 ± 0.0092	0.0075 ± 0.013	0.0005 ± 0.016	0.0005 ± 0.018	0.0105 ± 0.005	-0.012 ± 0.011	-0.0105 ± 0.005	-0.0175 ± 0.012	-0.015 ± 0.0028	-0.005 ± 0.014	-0.0015 ± 0.0064	0.008 ± 0.014	0.031 ± 0.011	0.007 ± 0.0014	0.0185 ± 0.0021	0.009 ± 0.014
4H:VEGFR2	-0.0185 ± 0.037	-0.0115 ± 0.033	0.0075 ± 0.0092	0.006 ± 0.02	0.004 ± 0.023	0.002 ± 0.047	-0.004 ± 0.017	0.0155 ± 0.0021	0.0225 ± 0.015	-0.012 ± 0.0042	-0.017 ± 0.0085	0.0065 ± 0.056	0.0025 ± 0.013	0.008 ± 0.025	-0.0255 ± 0.015	-0.005 ± 0.042	0.012 ± 0.05	0.011 ± 0.045	0.043 ± 0.044	0.0595 ± 0.049
BE3C:CD87/uPAR	0.0035 ± 0.016	0.0165 ± 0.035	0.0165 ± 0.018	0.0035 ± 0.00071	0.0465 ± 0.026	0.006 ± 0.02	0.002 ± 0.0057	0.027 ± 0.0042	0.0025 ± 0.0021	-0.0035 ± 0.012	0.008 ± 0.0099	-0.0035 ± 0.063	-0.0235 ± 0.026	0.024 ± 0.0014	-0.003 ± 0.013	-0.0175 ± 0.019	0.0015 ± 0.005	-0.001 ± 0.0099	0.0265 ± 0.016	-0.0125 ± 0.005
BT:PBMC Cytotoxicity	0.004 ± 0.0057	0.007 ± 0.021	0.042 ± 0.014	-0.0045 ± 0.022	0.0285 ± 0.0035	-0.012 ± 0.03	-0.0265 ± 0.028	-0.024 ± 0.011	-0.0095 ± 0.005	-0.0065 ± 0.005	-0.0045 ± 0.036	0.0075 ± 0.035	-0.0055 ± 0.0078	0.0255 ± 0.013	-0.0175 ± 0.018	-0.0075 ± 0.0035	-0.002 ± 0.047	0.003 ± 0.017	-0.0035 ± 0.013	-0.009
SAg:CD62E/E-Selectin	0.0215 ± 0.011	0.007 ± 0.014	-0.009 ± 0.0014	0.0055 ± 0.019	0.0095 ± 0.044	0.023 ± 0.062	-0.0295 ± 0.0078	0.017 ± 0.0085	-0.0135 ± 0.028	-0.0055 ± 0.039	0 ± 0.011	0.0005 ± 0.0064	-0.012 ± 0.013	0.0195 ± 0.025	-0.0205 ± 0.018	-0.002 ± 0.0014	0.0175 ± 0.0078	-0.0135 ± 0.0064	-0.0185 ± 0.0064	0.0125 ± 0.044
3C:HLA-DR	-0.004 ± 0.016	-0.023 ± 0.02	0.0025 ± 0.0035	-0.011 ± 0.0057	-0.001 ± 0.017	-0.001 ± 0.016	0.006 ± 0.0042	-0.0035 ± 0.0064	0.004 ± 0.047	0.023 ± 0.057	0.023 ± 0.041	-0.0075 ± 0.0035	0.0015 ± 0.021	0.018 ± 0.037	-0.003 ± 0.0057	-0.013 ± 0.011	0.011 ± 0.014	-0.0185 ± 0.012	-0.0095 ± 0.016	0.0005 ± 0.036
SAg:CXCL8/IL-8	0.0115 ± 0.012	0.0405 ± 0.079	0.0365 ± 0.016	-0.004 ± 0.0071	0.002 ± 0.059	-0.0585 ± 0.042	-0.061 ± 0.016	0.007 ± 0.042	0.058 ± 0.076	-0.0255 ± 0.011	0.0065 ± 0.061	-0.012 ± 0.041	-0.018 ± 0.044	-0.013 ± 0.088	-0.0325 ± 0.03	-0.0065 ± 0.022	0.025 ± 0.098	0.0115 ± 0.022	-0.005	0.014 ± 0.044
SAg:CXCL9/MIG	0.002 ± 0.0085	0.015 ± 0.0042	-0.0205 ± 0.028	-0.005 ± 0.014	0.0045 ± 0.032	-0.005 ± 0.013	-0.0145 ± 0.0092	0.0005 ± 0.012	-0.0035 ± 0.005	-0.019 ± 0.0057	-0.01 ± 0.0014	-0.0115 ± 0.0078	-0.014 ± 0.0099	0.004 ± 0.021	-0.0115 ± 0.00071	-0.0035 ± 0.0078	0.0095 ± 0.016	0.0075 ± 0.0021	0 ± 0.0014	0.0065 ± 0.0092
LPS:IL-1alpha	-0.0515 ± 0.096	-0.0355 ± 0.023	-0.048 ± 0.035	-0.042 ± 0.021	-0.004 ± 0.0014	0.023 ± 0.033	0.0055 ± 0.022	0.0205 ± 0.0064	-0.04 ± 0.038	0.0105 ± 0.022	-0.0025 ± 0.03	-0.0005 ± 0.00071	-0.0115 ± 0.012	-0.021 ± 0.017	-0.038 ± 0.0071	-0.02 ± 0.0085	-0.0065 ± 0.023	-0.0135 ± 0.00071	-0.022 ± 0.011	0.0345 ± 0.0092
